From US20240190885A1, “KRAS PROTEIN DEGRADERS, PHARMACEUTICAL COMPOSITIONS THEREOF, AND THEIR THERAPEUTIC APPLICATIONS” (BioTheryX, Inc., priority 2021, published 2024) come the findings set out here.

Type in all cases: cell-based
One test deals with H358 (G12C) cells. In words: Cell viability assay (CELLTITER-GLO), H358 cells. Conditions: Homo sapiens, NCI-H358, 72 h, 3 days, CELLTITER-GLO luminescence, read-out: Inhibition of Cancerous Cells IC50 H358 (G12C). On the procedure: (§1) H358 and SW48 cells were cultured in RPMI 1640 media supplemented with 10% fetal bovine serum, streptomycin, and penicillin. Lovo and SW480 cells were cultured in DMEM media supplemented with 10% fetal bovine serum, streptomycin, and penicillin. The cell lines were plated in their respective medium supplemented with 2.5% fetal bovine serum, streptomycin, and penicillin. All cell lines were plated in white walled 96-well plates at 2,000 cells/well or 384-well plates at 500 cells/well, except Lovo, which were plated at 4,000 or 1,000 cells/well, respectively. The cells were incubated in DMSO (control) or a compound for 3 days at 37° C. under 5% CO2. A CELLTITER-GLO® reagent (100 μL) was then added to each well. After a 10 min incubation with shaking, luminescence was measured using an ENVISION® multimode plate reader.

A further test concerns SW48 (wt) cells. In words: Cell viability assay (CELLTITER-GLO), SW48 cells. Conditions: Homo sapiens, 72 h, 3 days, CELLTITER-GLO luminescence, read-out: Inhibition of Cancerous Cells IC50 SW48 (wt). As to the method: as §1
In a further test the test system is SW480 (G12V) cells. In words: Cell viability assay (CELLTITER-GLO), SW480 cells. Conditions: Homo sapiens, 72 h, 3 days, CELLTITER-GLO luminescence, read-out: Inhibition of Cancerous Cells IC50 SW480 (G12V). As to the method:
as §1

For a further test, the target named is T1, KRAS (Homo sapiens, UniProt P01116).
T1 construct: Whole cell extracts were prepared using an immunoprecipitation (IP) lysis buffer; endogenous in cells; host or cells: HEK293
Put plainly: Protein degradation assay (western blot) in HEK293 cells. Conditions: 6 h; for percent KRAS protein degradation at 3 µM: compound 3 μM; for KRAS Protein Degradation (%) 5 μM: compound 5 μM. On the procedure: HEK293 cells were grown in RPMI 1640 media supplemented with 10% fetal bovine serum, streptomycin, and penicillin. The cells were plated in 24-well plates in the growth media. The cells were then treated with a compound at indicated concentrations for 6 h. Whole cell extracts were prepared using an immunoprecipitation (IP) lysis buffer. Briefly, the cells were washed once in PBS, and the cell pellets were resuspended in the IP lysis buffer and incubated for 15 min on ice. Cell debris was removed by centrifugation and the cleared whole cell lysates were transferred to new tubes for further analysis.
For a western blot analysis, the whole cell protein extracts were separated on 4-12% SDS-polyacrylamide gels, transferred to nitrocellulose, and probed with primary antibodies. The nitrocellulose is subsequently washed and probed with IRDYE® secondary antibodies. The signals were detected using an ODYSSEY® Imaging System. The antibodies used in the assay included anti-KRAS; […] mouse monoclonal antibody; IRDYE® 680RD goat anti-rabbit antibody; and IRDYE® 800CW goat anti-mouse antibody.

Another test concerns Lovo (G13D) cells. Put plainly: Cell viability assay (CELLTITER-GLO), Lovo cells. Conditions: Homo sapiens, 72 h, 3 days, CELLTITER-GLO luminescence, read-out: Inhibition of Cancerous Cells IC50 Lovo (G13D). As to the method: as §1

The structures appear in SMILES notation.

T1 sequence (P01116 1-188 isoform P01116-2): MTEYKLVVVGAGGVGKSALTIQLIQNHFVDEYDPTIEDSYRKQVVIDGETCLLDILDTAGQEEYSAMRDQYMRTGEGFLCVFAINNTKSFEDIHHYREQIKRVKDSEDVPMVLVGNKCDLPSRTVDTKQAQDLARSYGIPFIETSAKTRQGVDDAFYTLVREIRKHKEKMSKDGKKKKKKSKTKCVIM

For `Cc1nn2c(N3CCN(CCO)CC3)cc(-c3cccc(CCCCCCCCCNC(=O)CC45CC6CC(CC(C6)C4)C5)c3)nc2c1-c1ccccc1` [Compound A1, 2-(adamantan-1-yl)-N-(9-(3-(7-(4-(2-hydroxyethyl)piperazin-1-yl)-2-methyl-3-phenylpyrazolo[1,5-a]pyrimidin-5-yl)phenyl)nonyl)acetamide], the IC50 with H358 (G12C) cells was 7.8 µM; in the test on SW48 (wt) cells, 5 µM; in the test on SW480 (G12V) cells, > 10 µM; in the test with Lovo (G13D) cells, 4.5 µM. Further, at KRAS, the percent KRAS protein degradation at 3 µM came to 7%. Besides, the “KRAS Protein Degradation (%) 5 μM” value on KRAS was 27%.
With `Cc1nn2c(N3CCN(CCO)CC3)cc(-c3cccc(CCNC(=O)CC45CC6CC(CC(C6)C4)C5)c3)nc2c1-c1ccccc1` [Compound A2, 2-(adamantan-1-yl)-N-(3-(7-(4-(2-hydroxyethyl)piperazin-1-yl)-2-methyl-3-phenylpyrazolo[1,5-a]pyrimidin-5-yl)phenethyl)acetamide], the 50% inhibitory concentration (IC50) with H358 (G12C) cells stood at 1.7 µM; with SW48 (wt) cells it was 1.4 µM; in the test with SW480 (G12V) cells it was 0.84 µM; in the test on Lovo (G13D) cells it was 1.2 µM. Also, on KRAS, the percent KRAS protein degradation at 3 µM turned out to be 20%. Also, at KRAS, the “KRAS Protein Degradation (%) 5 μM” value was determined as 54%.
As to `Cc1nn2c(N3CCN(CCO)CC3)cc(-c3cccc(CCOCCOC(=O)CC45CC6CC(CC(C6)C4)C5)c3)nc2c1-c1ccccc1` [Compound A3, 2-(3-(7-(4-(2-hydroxyethyl)piperazin-1-yl)-2-methyl-3-phenylpyrazolo[1,5-a]pyrimidin-5-yl)phenethoxy)ethyl 2-(adamantan-1-yl)acetate], the IC50 was 3.3 µM in the test on H358 (G12C) cells, 1.4 µM in the test on SW48 (wt) cells, 1.2 µM with SW480 (G12V) cells and 0.98 µM in the test on Lovo (G13D) cells. At KRAS, this compound came in with a percent KRAS protein degradation at 3 µM of 0%. On KRAS, the “KRAS Protein Degradation (%) 5 μM” value was determined as 0%.
For the compound `Cc1nn2c(N3CCN(CCO)CC3)cc(-c3cccc(CCOCCNC(=O)CC45CC6CC(CC(C6)C4)C5)c3)nc2c1-c1ccccc1` [Compound A4, 2-(adamantan-1-yl)-N-(2-(3-(7-(4-(2-hydroxyethyl)piperazin-1-yl)-2-methyl-3-phenylpyrazolo[1,5-a]pyrimidin-5-yl)phenethoxy)ethyl)acetamide], the IC50 was 1.6 µM with H358 (G12C) cells, 1.3 µM in the test with SW48 (wt) cells, 1.2 µM in the test on SW480 (G12V) cells and 0.88 µM with Lovo (G13D) cells. On KRAS, the percent KRAS protein degradation at 3 µM came out at 20%. Moreover, the “KRAS Protein Degradation (%) 5 μM” value at KRAS is 51%.
For the compound `Cc1nn2c(N3CCN(CCO)CC3)cc(-c3cccc(C#CCCCCCCCOC(=O)CC45CC6CC(CC(C6)C4)C5)c3)nc2c1-c1ccccc1` [Compound A5, 9-(3-(7-(4-(2-hydroxyethyl)piperazin-1-yl)-2-methyl-3-phenylpyrazolo[1,5-a]pyrimidin-5-yl)phenyl)non-8-yn-1-yl 2-(adamantan-1-yl)acetate], the IC50 in the test with H358 (G12C) cells, in the test with SW48 (wt) cells, in the test with SW480 (G12V) cells and with Lovo (G13D) cells was > 10 µM in each case. The compound further came in with a percent KRAS protein degradation at 3 µM on KRAS of 4%. The “KRAS Protein Degradation (%) 5 μM” value at KRAS is 18%.
`Cc1nn2c(N3CCN(CCO)CC3)cc(-c3cccc(CCCCCCCCCOC(=O)CC45CC6CC(CC(C6)C4)C5)c3)nc2c1-c1ccccc1` [Compound A6, 9-(3-(7-(4-(2-hydroxyethyl)piperazin-1-yl)-2-methyl-3-phenylpyrazolo[1,5-a]pyrimidin-5-yl)phenyl)nonyl 2-(adamantan-1-yl)acetate]: the IC50 in the test with H358 (G12C) cells, in the test on SW48 (wt) cells, with SW480 (G12V) cells and with Lovo (G13D) cells was > 10 µM in each case. Also, on KRAS, the percent KRAS protein degradation at 3 µM was 10%. Moreover, on KRAS, the “KRAS Protein Degradation (%) 5 μM” value is on record as 28%.
Turning to `Cc1nn2c(N3CCN(CCO)CC3)cc(-c3ccccc3)nc2c1-c1cccc(CCCCCCCCCNC(=O)CC23CC4CC(CC(C4)C2)C3)c1` [Compound C2, 2-(Adamantan-1-yl)-N-(9-(3-(7-(4-(2-hydroxyethyl)piperazin-1-yl)-2-methyl-5-phenylpyrazolo[1,5-a]pyrimidin-3-yl)phenyl)nonyl)acetamide], the IC50 in the test on H358 (G12C) cells is > 10 µM; with SW48 (wt) cells it was 4.5 µM; in the test with SW480 (G12V) cells, 2.2 µM; in the test on Lovo (G13D) cells it was 3.4 µM. At KRAS, this compound returned a percent KRAS protein degradation at 3 µM of 0%. On KRAS, the “KRAS Protein Degradation (%) 5 μM” value was 0%.
For `Cc1nn2c(N3CCN(CCO)CC3)cc(-c3ccccc3)nc2c1-c1ccccc1` [drawing 105, reference compound], the IC50 in the test with H358 (G12C) cells is 3.3 µM; with SW48 (wt) cells, 2.7 µM; with SW480 (G12V) cells, 1.4 µM; in the test on Lovo (G13D) cells it was 2.6 µM.
For the compound `Cc1nn2c(N3CCN(CCO)CC3)cc(-c3ccccc3)nc2c1-c1ccccc1` [drawing 106, reference compound], the percent KRAS protein degradation at 3 µM on KRAS was 0%.
